Reference: patent publication US20190231757A1, “COMBINATION OF SPLEEN TYROSINE KINASE INHIBITORS AND OTHER THERAPEUTIC AGENTS” (Takeda Pharmaceutical Company Limited, priority 2016, published 2019)

Key:
Type in all cases: in vivo, mouse
[1] = test system: OCI-Ly10 human lymphoma xenografts; assay: Antitumor activity in SCID mice bearing OCI-Ly10 human lymphoma xenografts, bendamustine and rituximab (Example 6); details: Day 21; Compound A 30 mg/kg PO QD x21; bendamustine 1 mg/kg IV BIW; rituximab 1 mg/kg IV QW x3; alone or combined
[2] = test system: Ly10 human lymphoma xenografts; assay: Antitumor activity in SCID mice bearing Ly10 xenografts, rituximab combination (Example 13); details: alone or combined
[3] = test system: Ly19 human lymphoma xenografts; assay: Antitumor activity in SCID mice bearing Ly19 xenografts, rituximab combination (Example 14); details: alone or combined
[4] = test system: OCI-Ly10 human DLBCL xenografts; assay: Antitumor activity in SCID mice bearing OCI-Ly10 human DLBCL xenografts, ibrutinib or bendamustine combination (Example 5); details: Day 21, Compound A 60 mg/kg PO QD, ibrutinib 6 mg/kg PO QD, bendamustine 1 mg/kg IV BIW (6 doses), alone or combined with Compound A
[5] = test system: WSU-Luc human lymphoma xenografts; assay: Antitumor activity in SCID mice bearing WSU-Luc human lymphoma xenografts, ibrutinib combination (Example 12); details: Day 20, alone or combined
Description: The study ended on Day 20 of dosing.
(§1) Tumor growth was monitored with vernier calipers. Tumor volume was calculated using the formula V=W^2×L/2, where V=volume, W=width and L=length of the tumor. When the mean tumor volume reached approximately 190 mm^3, the animals were randomized into treatment groups (n=8/group). […] Tumor growth and body weight were measured twice per week. Tumor growth inhibition and body weight change were calculated on Day 20 of treatment.
Statistical analysis: The differences in the tumor growth trends over time between pairs of treatment groups were assessed using linear mixed effects regression models. These models account for the fact that each animal was measured at multiple time points. A separate model was fit for each comparison, and the areas under the curve (AUC) for each treatment group were calculated using the predicted values from the model. The percent decrease in AUC (dAUC) relative to the reference group was then calculated.
The change in AUC relative to the control was calculated for both single agent treatment groups as well as the combination group. […] The results can be divided into four categories: synergistic, additive, sub-additive, and antagonistic.
For this analysis, a T/C ratio was calculated for each animal by dividing the tumor measurement for the given animal by the mean tumor measurement across all control animals. The T/C ratios across a treatment group were compared to the T/C ratios of the control group using a two-tailed Welch's t-test.

[6] = Body weight and tolerability, WSU-Luc ibrutinib study (Example 12); details: Compound A 60 mg/kg; ibrutinib 20 mg/kg; alone or combined
Description: as §1

OCI-LY10 xenografts = assay: Antitumor activity in CB17 SCID mice bearing OCI-LY10 xenografts, gemcitabine combination (Example 7); details: Day 21
Description: Tumor growth inhibition was calculated on Day 21 of the study. The last measurement was taken on Day 42 of the study.
(§2) Experimental design: Female CB17 SCID mice (Taconic Biosciences; weight at treatment start was 20 g) were inoculated subcutaneously in the flank (cell suspension) with 4.0×10^6 OCI-Ly10 cells. Tumor volume was calculated using the formula V=W^2×L/2, where V=volume, W=width and L=length of the tumor. When the mean tumor volume reached approximately 199 mm^3, the animals were randomized into 6 treatment groups (n=8/group). […] Tumor growth and body weight were measured twice per week. Tumor growth inhibition and body weight change were calculated on Day 21 of treatment.
(§3) Statistical analysis: The differences in the tumor growth trends over time between pairs of treatment groups were assessed using linear mixed effects regression models. These models account for the fact that each animal was measured at multiple time points. A separate model was fit for each comparison, and the areas under the curve (AUC) for each treatment group were calculated using the predicted values from the model. The percent decrease in AUC (dAUC) relative to the reference group was then calculated. […] Further details regarding pairwise comparisons are provided in the Example 2.
(§4) Drug combinations were assessed for synergy using observed AUC values. The change in AUC relative to the control was calculated for both single agent treatment groups as well as the combination group. The interaction between the two compounds was then assessed by comparing the change in AUC observed in the combination group to the sum of the changes observed in both single agents. The results can be divided into four categories: synergistic, additive, sub-additive, and antagonistic. Further details regarding combination analyses are provided in the Example 2.
(§5) Once a final analysis was selected, the tumor measurements observed on a date pre-specified by the researcher (typically the last day of treatment) were analyzed to assess tumor growth inhibition. For this analysis, a T/C ratio was calculated for each animal by dividing the tumor measurement for the given animal by the mean tumor measurement across all control animals. The T/C ratios across a treatment group were compared to the T/C ratios of the control group using a two-tailed Welch's t-test.

TMD8 DLBCL xenografts [7] = assay: Antitumor activity in CB17 SCID mice bearing TMD8 DLBCL xenografts, gemcitabine combination (Example 8); details: Day 14, alone or combined
Description: Tumor growth inhibition was calculated on Day 14 of the study. The last measurement was taken on Day 40 of the study.
as §2, with “19” for “20”, “5.0×10^6 TMD8” for “4.0×10^6 OCI-Ly10”, “cells. Tumor growth was monitored with vernier calipers.” for “cells.”, “215” for “199”, “into” for “into 6”, “14” for “21”
as §3
Drug combinations were assessed for synergy using observed AUC values. The change in AUC relative to the control was calculated for both single agent treatment groups as well as the combination group. The interaction between the two compounds was then assessed by comparing the change in AUC observed in the combination group to the sum of the changes observed in both single agents. The results can be divided into four categories: synergistic, additive, sub-additive, and antagonistic. Further details regarding combination analysis are provided in the Example 2.
as §5

TMD8 DLBCL xenografts [8] = assay: Antitumor activity in CB17 SCID mice bearing TMD8 DLBCL xenografts, ABT-199 or gemcitabine combination (Example 9); details: Day 14, alone or combined with Compound A; for TGI (%): Compound A 60 mg/kg PO QD, ABT-199 25 mg/kg PO QD, gemcitabine 5 mg/kg IP Q3D x4; for Mean Tumor Volume (mm^3) ± SEM / T/C: Compound A 60 mg/kg, ABT-199 25 mg/kg, gemcitabine 5 mg/kg
Description: Tumor growth inhibition was calculated on Day 14 of the study. The last measurement was taken on Day 29 of the study.
as §2, with “about 19” for “20”, “5.0×10^6 TMD8” for “4.0×10^6 OCI-Ly10”, “cells. Tumor growth was monitored with vernier calipers.” for “cells.”, “245” for “199”, “14” for “21”
as §3, §4, §5

[9] = Body weight and tolerability, OCI-LY10 gemcitabine study (Example 7)
Description: as §2

[10] = Body weight and tolerability, TMD8 gemcitabine study (Example 8); details: alone or combined
Description: as §2, with “19” for “20”, “5.0×10^6 TMD8” for “4.0×10^6 OCI-Ly10”, “cells. Tumor growth was monitored with vernier calipers.” for “cells.”, “215” for “199”, “into” for “into 6”, “14” for “21”

[11] = Body weight and tolerability, TMD8 ABT-199/gemcitabine study (Example 9); details: alone or combined with Compound A; for % BW Change (Day Maximum): Compound A 60 mg/kg PO QD 14 d, ABT-199 25 mg/kg PO QD 14 d, gemcitabine 5 mg/kg IP Q3D x4; for Number of animals removed: Compound A 60 mg/kg, ABT-199 25 mg/kg, gemcitabine 5 mg/kg
Description: as §2, with “about 19” for “20”, “5.0×10^6 TMD8” for “4.0×10^6 OCI-Ly10”, “cells. Tumor growth was monitored with vernier calipers.” for “cells.”, “245” for “199”, “14” for “21”

OCI-LY 10 xenografts = assay: Antitumor activity in CB17 SCID mice bearing OCI-LY10 xenografts, ABT-199 combination (Example 11); details: Day 21
Description: Tumor growth inhibition was calculated on Day 21 of the study. The last measurement was taken on Day 46 of the study.
as §2, with “(Charles River Laboratories, about 21 g” for “(Taconic Biosciences; weight”, “start)” for “start was 20 g)”, “cells. Tumor growth was monitored with vernier calipers.” for “cells.”, “175” for “199”, “into” for “into 6”, “(n=5/group).” for “(n=8/group).”
as §3, §4, §5

[12] = Body weight and tolerability, OCI-LY10 ABT-199 study (Example 11)
Description: as §2, with “(Charles River Laboratories, about 21 g” for “(Taconic Biosciences; weight”, “start)” for “start was 20 g)”, “cells. Tumor growth was monitored with vernier calipers.” for “cells.”, “175” for “199”, “into” for “into 6”, “(n=5/group).” for “(n=8/group).”

[13] = Day 21, Compound A 60 mg/kg PO QD x21, rituximab 1 mg/kg IV QW x3
[14] = Day 14, Compound A 60 mg/kg PO QD x14, rituximab 10 mg/kg IV QW x2
[15] = Compound A 60 mg/kg, ibrutinib 20 mg/kg
[16] = Compound A 60 mg/kg PO QD, gemcitabine 2.5 mg/kg IP Q3D, alone or combined
[17] = Compound A 60 mg/kg, gemcitabine 2.5 mg/kg, alone or combined
[18] = gemcitabine 5 mg/kg IP Q3D, alone or with Compound A 60 mg/kg PO QD
[19] = gemcitabine 5 mg/kg, alone or with Compound A 60 mg/kg
[20] = Compound A 60 mg/kg PO QD, gemcitabine 5 mg/kg IP Q3D x4
[21] = Compound A 60 mg/kg, gemcitabine 5 mg/kg
[22] = ABT-199 25 mg/kg, alone or with Compound A 60 mg/kg
[23] = Compound A 60 mg/kg, ABT-199 12.5 mg/kg, alone or combined

rituximab
TGI [1]: 33.4%
Mean Tumor Volume (mm^3) ± SEM at Day 21 [2, 13]: 301.8 ± 30.8 mm^3
TGI (%) [2, 13]: 66.7%
dAUC ([2]; vs vehicle, Compound A 60 mg/kg, rituximab 1 mg/kg): 77.6
Mean Tumor Volume (mm^3) ± SEM at Day 14 [3, 14]: 516.8 ± 113.3 mm^3
TGI (%) [3, 14]: 79.5%
dAUC ([3]; vs vehicle, Compound A 60 mg/kg, rituximab 10 mg/kg): 61.8

C=CC(=O)N1CCC[C@@H](n2nc(-c3ccc(Oc4ccccc4)cc3)c3c(N)ncnc32)C1 [ibrutinib]
TGI [4]: 18%
TGI ([4]; listed as Ibrutinib): 18.0%
TGI (%) ([5]; Compound A 60 mg/kg PO QD, ibrutinib 20 mg/kg PO QD): 0.5%
Mean Tumor Volume (mm^3) ± SEM [5, 15]: 1,085.2 ± 109.9 mm^3
T/C [5, 15]: 1.00
Number of animals removed [6]: 0

Nc1ccn([C@@H]2O[C@H](CO)[C@@H](O)C2(F)F)c(=O)n1 [gemcitabine]
Mean Tumor Volume (mm^3) ± SEM (OCI-LY10 xenografts; [16]): 561.7 ± 52.5 mm^3
TGI (%) (OCI-LY10 xenografts; [16]): 52.6%
T/C (OCI-LY10 xenografts; [17]): 0.47
Mean Tumor Volume (mm^3) ± SEM (OCI-LY10 xenografts; [18]): 331.3 ± 57.6 mm^3
TGI (%) (OCI-LY10 xenografts; [18]): 72.1%
T/C (OCI-LY10 xenografts; [19]): 0.28
Mean Tumor Volume (mm^3) ± SEM (TMD8 DLBCL xenografts [7]; [20]): 294.7 ± 36.5 mm^3
TGI (%) (TMD8 DLBCL xenografts [7]; [20]): 67.1%
T/C (TMD8 DLBCL xenografts [7]; [21]): 0.33
TGI (%) (TMD8 DLBCL xenografts [8]): 70.3%
Mean Tumor Volume (mm^3) ± SEM (TMD8 DLBCL xenografts [8]): 440.2 ± 70.9 mm^3
T/C (TMD8 DLBCL xenografts [8]): 0.30
% BW Change (Day Maximum) ([9]; Compound A 60 mg/kg PO QD 21 d, gemcitabine 2.5 mg/kg IP Q3D (4 doses), alone or combined): 7.5 (21) %
Number of animals removed [9, 17]: 0
% BW Change (Day Maximum) ([9]; gemcitabine 5 mg/kg IP Q3D (4 doses), alone or with Compound A 60 mg/kg PO QD): −1.4 (3) %
Number of animals removed [9, 19]: 0
% BW Change (Day Maximum) ([10]; Compound A 60 mg/kg PO QD 14 d, gemcitabine 5 mg/kg IP Q3D x4): −0.1 (4) %
Number of animals removed [10, 21]: 0
% BW Change (Day Maximum) [11]: −0.2 (11) %
Number of animals removed [11]: 0

CC1(C)CCC(CN2CCN(c3ccc(C(=O)NS(=O)(=O)c4ccc(NCC5CCOCC5)c([N+](=O)[O-])c4)c(Oc4cnc5[nH]ccc5c4)c3)CC2)=C(c2ccc(Cl)cc2)C1 [ABT-199, venetoclax]
TGI (%) (TMD8 DLBCL xenografts [8]): 29.1%
Mean Tumor Volume (mm^3) ± SEM (TMD8 DLBCL xenografts [8]): 1,048.9 ± 136.1 mm^3
T/C (TMD8 DLBCL xenografts [8]): 0.71
TGI (%) (OCI-LY 10 xenografts; ABT-199 25 mg/kg PO QD, alone or with Compound A 60 mg/kg PO QD): 9.2%
Mean Tumor Volume (mm^3) ± SEM (OCI-LY 10 xenografts; [22]): 950.3 ± 182.1 mm^3
T/C (OCI-LY 10 xenografts; [22]): 0.91
TGI (%) (OCI-LY 10 xenografts; Compound A 60 mg/kg PO QD, ABT-199 12.5 mg/kg PO QD, alone or combined): −0.4%
Mean Tumor Volume (mm^3) ± SEM (OCI-LY 10 xenografts; [23]): 1,050.6 ± 221.4 mm^3
T/C (OCI-LY 10 xenografts; [23]): 1.00
% BW Change (Day Maximum) [11]: −0.4 (11) %
Number of animals removed [11]: 0
% BW Change (Day Maximum) ([12]; ABT-199 25 mg/kg PO QD 21 d, alone or with Compound A 60 mg/kg PO QD): −1.5 (14) %
Number of animals removed [12, 22]: 1
% BW Change (Day Maximum) ([12]; Compound A 60 mg/kg PO QD 21 d, ABT-199 12.5 mg/kg PO QD 21 d, alone or combined): 4.6 (21) %
Number of animals removed [12, 23]: 0
